Where “and” joins values, the source holds several entries; their conditions need not be identical. Equal entries are not always repeated.
What was measured:
[1] = test system: mice; assay: Marble burying test; format: in vivo, mouse; conditions: for NUMBER OF MARBLES COVERED BY SAWDUST Mean ± s.e.m.: 25 marbles, 30-minute test, 15 mice
Protocol: The method applied here follows that described by Broekkamp et al. 1986, supra. Mice (n=15 per treatment group) were individually placed in transparent plastic cages (33×21×18 cm) with 5 cm of sawdust on the floor and 25 marbles (diameter 1 cm) grouped in the centre of the cage. A second, up-tamed, cage served as a lid. The number of marbles covered by sawdust (by at least two-thirds) was counted at the end of the 30-minute test period. Tests were performed by investigators blind to the drug treatment protocol.
Prior to testing, all test cages and marbles were “impregnated” by leaving 10 naive mice in each cage for 15 minutes.
Oregano extract 1 was evaluated at 10, 30 and 60 mg/kg, administered i.p. 30 minutes before the test, and compared with a vehicle control group. Oregano extract 1 was dissolved in a saline solution containing 3% (v/v) DMSO and 3% (v/v) Tween® 80 “vehicle”. The control group were administered vehicle in the same manner, while fluoxetine (32 mg/kg), administered under the same experimental conditions, was used as a reference substance. Data were analyzed by comparing treated groups with vehicle control using unpaired Student's t-tests.

[2] = test system: hippocampal serotonin (5HT) levels; assay: Hippocampal serotonin levels by in vivo microdialysis; parameters: species or system rat; conditions: cumulative 5HT in dosing period, n = 5-6 rats
Protocol: Male Sprague-Dawley rats (250-320 g) were housed in groups of 4-5 under conditions of controlled temperature (21±2° C.) and humidity (55±10%) with free access to food and water (lights on 07.00-19.00). Rats were anaesthetised using chloral hydrate (400 mg/kg i.p.) and a single microdialysis probe (BASi type MD2200, 2 mm membrane, 30,000 dalton cut-off) implanted in the dorsal hippocampus using a stereotaxic frame at the following coordinates (rostro-caudal—4.5 mm; media-lateral—2.5 mm; dorso-ventral—4.5 mm from bregma and dura surface according to Paxinos & Watson 6) and fixed in position with dental cement. Body temperature was maintained at 36° C. using a heating pad and monitored via a digital rectal thermometer. The microdialysis probe was perfused with artificial cerebrospinal fluid (aCSF) at 1 μl/min and extracellular monoamine levels determined by collection of perfusate samples every 15 min and assayed using high-performance liquid chromatography (HPLC) with electrochemical detection.
The HPLC mobile phase (0.5 mM EDTA, 0.1M monochloroacetic acid pH 3.1, 0.15 g/L sodium octyl sulphate, 5% acetonitrile, 0.7% tetrahydrofuran) was pumped through the system at 70 μl/min. Monoamines were separated using a reverse-phase 1×100 mm ODS 3 mm microbore column with 5 μl injection loop and detected using a Epsilon electrochemical detector (BAST) with a glassy carbon electrode set at +650 mV versus Ag/AgCl reference electrode. Dialysate peaks were identified by comparing peak elution times with reference standards and quantified according to measurement of peak area using linear regression analysis. The detection limits for 5HT and SHIAA were defined as the sample amount producing a peak area twice that of the background noise per unit time and were approximately 0.1 fmol/sample in both cases. […]
For routine assay, two rats were prepared of which one was used to test the oregano extract and the other a control (vehicle) sample. […] Data from replicate studies for each compound are therefore expressed as % Basal level, as is normal practice for microdialysis studies. […]

[3] = test system: mouse; assay: Light Dark Box Test in the mouse; format: in vivo; conditions: 16 mg/kg i.p. −30 min; for NUMBER OF CROSSINGS mean ± s.e.m. / TIME SPENT IN LIGHT COMPARTMENT (s) mean ± s.e.m.: 3-minute test, 15 mice
Source text: The method, which detects anxiolytic activity, follows that described by Crawley, 1981 Pharmacol. Biochem. Behav., 15: 695-699. Anxiolytics increase the time spent in the light compartment.
Animals were placed into the light compartment of a 2-compartment box with one half light and open (25×27×27 cm) and the other half dark and closed (20×27×27 cm). The time spent in each compartment, as well as the number of times the animal crosses from one side to the other, is scored during a 3-minute test. 15 mice were studied per group. The test was performed blind.
Oregano extract 1 was evaluated at 3 doses (10, 30 and 60 mg/kg), administered i.p. 30 minutes before the test, and compared with a vehicle control group. Oregano extract 1 was dissolved in a saline solution containing 3% (v/v) DMSO and 3% (v/v) Tween® 80 (“vehicle”). The control group was administered vehicle, venlafaxine (16 mg/kg i.p) was used as comparison substance and clobazam (16 mg/kg i.p) was used as reference substance, all being administered i.p., 30 minutes prior to the test.

[4] = test system: mice; assay: Porsolt's Forced Swim Test (Behavioral Despair Test), i.p.; format: in vivo, mouse; conditions: 16 mg/kg i.p., −30 min, 15 mice
Protocol: The test, which detects antidepressant activity, was carried out as described by Porsolt et al supra. Mice which are forced to swim in a situation from which they cannot escape rapidly become immobile. Antidepressants decrease the duration of immobility.
Mice were individually placed in cylinders (Height=24 cm, Diameter=13 cm) containing 10 cm water (22° C.) from which they could not escape. The mice were placed in the water for 6 minutes and the duration of immobility during the last 4 minutes was measured.
15 mice were studied per each of the four groups.
Oregano extract 1 was evaluated at 3 doses (10, 30 and 60 mg/kg), administered i.p. 30 minutes before the test, and compared with a control group, administered vehicle in the same manner. The thus administered […] was dissolved in vehicle (saline solution containing 3% (v/v) DMSO and 3% (v/v) Tween® 80). Venlafaxine (16 mg/kg, i.p.), as comparison substance, and imipramine (32 mg/kg, i.p.), as reference compound, were administered under the same experimental conditions.
Data were analyzed by comparing the treated groups with the control group using unpaired Student's t tests and are presented in Table 3.

[5] = Plasma level of free and total carvacrol after oral oregano extract 4 (LC/MS/MS); format: in vivo, rat; conditions: individual animals
Protocol: 4 male and 4 female rats received a single dose of 800 mg of oregano extract 4 per kg body weight by oral gavage, respectively. The application solution was prepared in corn oil at a concentration of 200 mg extract per gram formulation.
The sample analysis was performed with a liquid chromatography—tandem mass spectrometry (LC/MS/MS) system, using a column switching system for online cleaning and desalting of the samples.
After addition of internal standard (D2-thymol) and protein precipitation (in case of “free” analyte) or pre-digesting by β-glucuronidase followed by protein precipitation (in case of “total” analyte), the samples were injected on a Waters XTerra™ MS C18 guard-column used as purification column, then transferred onto a Waters XTerra™ C18 column. Detection was performed using tandem mass spectrometry in MRM mode.
Calibration and quality control samples were prepared in 5% Albumin bovine serum solution and human plasma.

Structure (SMILES): CNCCC(Oc1ccc(C(F)(F)F)cc1)c1ccccc1 (stereo not drawn) [Fluoxetine]
- NUMBER OF MARBLES COVERED BY SAWDUST % change from control ([1]; 32 mg/kg i.p., −30 min): −93%
- NUMBER OF MARBLES COVERED BY SAWDUST Mean ± s.e.m. ([1]; 32 mg/kg i.p., −30 min): 1.4 ± 1.0
- 5-HT LEVEL (% basal) Mean ± s.e.m. ([2]; 3 mg/kg i.p., injection 150 min post-surgery): 85 ± 4 % basal
- 5-HT LEVEL (% basal) Mean ± s.e.m. ([2]; 10 mg/kg i.p., injection 210 min post-surgery): 131 ± 9 % basal
- 5-HT LEVEL (% basal) Mean ± s.e.m. ([2]; 30 mg/kg i.p., injection 270 min post-surgery): 160 ± 7 % basal

Structure (SMILES): COc1ccc(C(CN(C)C)C2(O)CCCCC2)cc1 (stereo not drawn) [Venlafaxine]
- NUMBER OF CROSSINGS % change from control [3]: −6%
- TIME SPENT IN LIGHT COMPARTMENT % change from control [3]: 0%
- NUMBER OF CROSSINGS mean ± s.e.m. [3]: 4.4 ± 0.9
- TIME SPENT IN LIGHT COMPARTMENT (s) mean ± s.e.m. [3]: 55.2 ± 9.3 s
- DURATION OF IMMOBILITY % change from control [4]: −51%
- DURATION OF IMMOBILITY (s) Mean ± s.e.m. [4]: 80.1 ± 11.1 s
- DURATION OF IMMOBILITY % change from control ([4]; listed as venlafaxine): −51%
- NUMBER OF MARBLES COVERED BY SAWDUST % change from control ([1]; 16 mg/kg i.p. −30 min): −98%
- NUMBER OF MARBLES COVERED BY SAWDUST Mean ± s.e.m. ([1]; 16 mg/kg i.p., −30 min): 0.5 ± 0.3
- NUMBER OF MARBLES COVERED BY SAWDUST % change from control ([1]; 16 mg/kg i.p., −30 min, listed as venlafaxine): −98%

Structure (SMILES): Cc1ccc(C(C)C)cc1O [Carvacrol]
- Free Carvacrol (ng/mL) in plasma ([5]; female rats, 0.5 h after single 800 mg/kg oregano extract 4 by oral gavage in corn oil): 5120 ng/mL and 4090 ng/mL and 50100 ng/mL and 30.9 ng/mL
- Free Carvacrol (ng/mL) in plasma ([5]; female rats, 1 h after single 800 mg/kg oregano extract 4 by oral gavage in corn oil): 6050 ng/mL and 3610 ng/mL and 192 ng/mL
- Free Carvacrol (ng/mL) in plasma ([5]; female rats, 2 h after single 800 mg/kg oregano extract 4 by oral gavage in corn oil): 840 ng/mL and 1360 ng/mL and 64.3 ng/mL
- Free Carvacrol (ng/mL) in plasma ([5]; female rats, 3 h after single 800 mg/kg oregano extract 4 by oral gavage in corn oil): 228 ng/mL and 174 ng/mL
- Free Carvacrol (ng/mL) in plasma ([5]; female rats, 4 h after single 800 mg/kg oregano extract 4 by oral gavage in corn oil): 246 ng/mL and 102 ng/mL and 50.3 ng/mL
- Free Carvacrol (ng/mL) in plasma ([5]; female rats, 6 h after single 800 mg/kg oregano extract 4 by oral gavage in corn oil): 135 ng/mL and 91.9 ng/mL and 48.3 ng/mL
- Free Carvacrol (ng/mL) in plasma ([5]; female rats, 8 h after single 800 mg/kg oregano extract 4 by oral gavage in corn oil): 159 ng/mL and 1630 ng/mL and <LOQ = 10.0 ng/mL
- Free Carvacrol (ng/mL) in plasma ([5]; female rats, 24 h after single 800 mg/kg oregano extract 4 by oral gavage in corn oil): 127 ng/mL and 8.91 ng/mL and <LOQ = 10.0 ng/mL
- concentration at 3 h ([5]; female, rat, plasma, po, 800 mg/kg, Free Carvacrol (ng/mL) in plasma, female rats, 3 h after single 800 mg/kg oregano extract 4 by oral gavage in corn oil): 128 ng/mL
- Free Carvacrol (ng/mL) in plasma ([5]; male rats, 0.5 h after single 800 mg/kg oregano extract 4 by oral gavage in corn oil): 1530 ng/mL and 103 ng/mL and 55.9 ng/mL and 1320 ng/mL
- Free Carvacrol (ng/mL) in plasma ([5]; male rats, 1 h after single 800 mg/kg oregano extract 4 by oral gavage in corn oil): 1150 ng/mL and 1820 ng/mL
- Free Carvacrol (ng/mL) in plasma ([5]; male rats, 2 h after single 800 mg/kg oregano extract 4 by oral gavage in corn oil): 166 ng/mL and 584 ng/mL and 199 ng/mL
- Free Carvacrol (ng/mL) in plasma ([5]; male rats, 3 h after single 800 mg/kg oregano extract 4 by oral gavage in corn oil): 51.5 ng/mL and 58.4 ng/mL and 1580 ng/mL
- Free Carvacrol (ng/mL) in plasma ([5]; male rats, 4 h after single 800 mg/kg oregano extract 4 by oral gavage in corn oil): 30.4 ng/mL and 40 ng/mL and 316 ng/mL
- Free Carvacrol (ng/mL) in plasma ([5]; male rats, 6 h after single 800 mg/kg oregano extract 4 by oral gavage in corn oil): 83.4 ng/mL and 980 ng/mL and 100 ng/mL
- Free Carvacrol (ng/mL) in plasma ([5]; male rats, 8 h after single 800 mg/kg oregano extract 4 by oral gavage in corn oil): 156 ng/mL and 140 ng/mL
- Free Carvacrol (ng/mL) in plasma ([5]; male rats, 24 h after single 800 mg/kg oregano extract 4 by oral gavage in corn oil): <LOQ = 10.0 ng/mL
- concentration at 1 h ([5]; male, rat, plasma, po, 800 mg/kg, Free Carvacrol (ng/mL) in plasma, male rats, 1 h after single 800 mg/kg oregano extract 4 by oral gavage in corn oil): 1790 ng/mL
- concentration at 8 h ([5]; male, rat, plasma, po, 800 mg/kg, Free Carvacrol (ng/mL) in plasma, male rats, 8 h after single 800 mg/kg oregano extract 4 by oral gavage in corn oil): 185 ng/mL
- concentration at 24 h ([5]; male, rat, plasma, po, 800 mg/kg, Free Carvacrol (ng/mL) in plasma, male rats, 24 h after single 800 mg/kg oregano extract 4 by oral gavage in corn oil): 68.1 ng/mL

Structure (SMILES): CN1C(=O)CC(=O)N(c2ccccc2)c2cc(Cl)ccc21 [Clobazam]
- NUMBER OF CROSSINGS % change from control [3]: +68%
- TIME SPENT IN LIGHT COMPARTMENT % change from control [3]: +114%
- NUMBER OF CROSSINGS mean ± s.e.m. [3]: 7.9 ± 0.9
- TIME SPENT IN LIGHT COMPARTMENT (s) mean ± s.e.m. [3]: 118.4 ± 3.4 s
